Like-named read-outs stand apart in the source and are kept apart here.

One may read the IC50 as the concentration needed to halve the response being measured.

Assay in all cases: Recombinant cathepsin inhibition, gel-based competition with GB123 probe
Format in all cases: biochemical

The target in experiment [1] is T1, Recombinant human cathepsin L (Homo sapiens, UniProt P07711).
T1 construct: made in house
Here is the method: (§1) In-gel fluorescence analysis was used to detect the residual activity of the cathepsins by applying pan-cathepsin probe GB123 to detect the stable enzyme–probe complex. This approach is used for testing inhibition and selectivity.[37],[41]
(§2) Recombinant human cathepsin L (0.5 μM), cathepsin B (0.5 μM), cathepsin K (0.5 μM), and cathepsin S (0.5 μM) were pretreated with different concentrations of inhibitors (GD compounds, odanacatib) for 1 h in reaction buffer (50 mM acetate, 2 mM dithiothreitol (DTT), and 5 mM MgCl2, pH 5.5) at 37 °C. GB123 (1 μM) was added and incubated with samples for 60 min at 37 °C.[37],[41] The reaction was stopped by the addition of sample buffer 4× (40% glycerol, 0.2 M Tris/HCl pH 6.8, 20% β-mercaptoethanol, 12% SDS, and 0.4 mg/mL bromophenol blue). Samples were then boiled, separated on a 12.5% SDS gel, and scanned for fluorescence by a Typhoon scanner FLA 9500 at excitation and emission wavelengths of 635 and 670 nm for GB123.
(§3) graphs were generated in GraphPad Prism software.

Experiment [2] concerns the target T2, Recombinant human cathepsin B (Homo sapiens, UniProt P07858).
T2 construct: made in house
Here is the method: as §1, §2, §3

Experiment [3] has as its target T3, Recombinant human cathepsin K (Homo sapiens, UniProt P43235).
T3 construct: made in house
T3 sequence (P43235 115-329): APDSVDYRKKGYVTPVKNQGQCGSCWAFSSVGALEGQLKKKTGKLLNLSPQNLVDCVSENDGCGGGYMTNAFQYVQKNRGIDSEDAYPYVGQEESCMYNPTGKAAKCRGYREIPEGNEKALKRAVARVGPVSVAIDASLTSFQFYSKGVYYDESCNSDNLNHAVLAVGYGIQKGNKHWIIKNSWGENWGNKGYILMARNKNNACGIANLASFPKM
Conditions: for loss of potency compared to GD20: diastereomers of GD20 with D amino acids. The protocol: as §1, §2, §3

Where [4] appears, read: Table S2, three independent competition gel-based experiments, read-out: CTSL (IC50).
Where [5] appears, read: Table S2, three independent competition gel-based experiments, read-out: CTSB (IC50).
Setting [6] is: Table S2, three independent competition gel-based experiments, read-out: CTSK (IC50).

T1 sequence (P07711 114-333): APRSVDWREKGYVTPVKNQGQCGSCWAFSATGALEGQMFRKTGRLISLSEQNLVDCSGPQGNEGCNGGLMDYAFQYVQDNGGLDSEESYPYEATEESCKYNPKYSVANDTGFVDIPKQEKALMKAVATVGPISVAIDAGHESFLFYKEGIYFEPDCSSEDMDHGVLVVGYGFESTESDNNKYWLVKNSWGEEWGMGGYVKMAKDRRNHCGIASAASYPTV

For `CC(C)C[C@H](N[C@@H](c1ccc(-c2ccc(S(C)(=O)=O)cc2)cc1)C(F)(F)F)C(=O)NCC(=O)CSc1c(F)c(F)cc(F)c1F` [GD9], the IC50 was more than 5 µM in experiment [1] (setting [4]), 5.1 ± 0.55 µM in experiment [2] (setting [5]) and 0.5 ± 0.05 µM in experiment [3] (setting [6]).

As to `CC(C)C[C@H](NC(=O)OCC1c2ccccc2-c2ccccc21)C(=O)N1CCC[C@H]1C(=O)OCC(=O)CNC(=O)[C@@H](CC(C)C)N[C@H](c1ccc(-c2ccc(S(C)(=O)=O)cc2)cc1)C(F)(F)F` [GD40], in experiment [3] (setting [6]), the IC50 was found to be 3.5 ± 0.9 µM. Moreover, in experiment [3], the “loss of potency compared to GD20” value was 4–9 times.

Consider `Cc1cccc(C)c1C(=O)OCC(=O)[C@H](CCCCN)NC(=O)[C@@H]1CCCN1C(=O)CNC(=O)OCc1ccccc1` [GD13], for which the 50% inhibitory concentration (IC50) in experiment [1] (setting [4]) is more than 5 µM; in experiment [2] (Figure 1, gel-based GB123 competition, read-out: Activity [μM] CTSB (IC50)), 1.95 ± 0.35 µM; in experiment [2] (setting [5]), 4 ± 0.15 µM; in experiment [3] (Figure 1, gel-based GB123 competition, read-out: Activity [μM] CTSK (IC50)), 3.6 ± 0.5 µM; in experiment [3] (setting [6]) it was 2.7 ± 0.35 µM.

`CC(C)C[C@H](N[C@@H](c1ccc(-c2ccc(S(C)(=O)=O)cc2)cc1)C(F)(F)F)C(=O)NCC(=O)COC(=O)CNC(=O)OCC1c2ccccc2-c2ccccc21` [GD27]: the IC50 is more than 5 µM in experiment [1] (setting [4]), more than 5 µM in experiment [2] (setting [5]) and 1 ± 0.07 µM in experiment [3] (setting [6]).

As for `NCCCC[C@H](NC(=O)[C@@H]1CCCN1C(=O)CNC(=O)OCc1ccccc1)C(=O)CSc1c(F)c(F)cc(F)c1F` [GD15], the 50% inhibitory concentration (IC50) was more than 5 µM in experiment [1] (Figure 1, gel-based GB123 competition, read-out: Activity [μM] CTSL (IC50)); 2 ± 0.15 µM in experiment [1] (setting [4]); more than 5 µM in experiment [2] (setting [5]); 5.5 ± 1 µM in experiment [3] (setting [6]).

Regarding `Cc1cccc(C)c1C(=O)OCC(=O)CNC(=O)[C@H](CC(C)(C)F)N[C@@H](c1ccc(-c2ccc(NC(=O)OC(C)(C)C)cc2)cc1)C(F)(F)F` [GD6], the half-maximal inhibitory concentration (IC50) is more than 5 µM in experiment [1] (setting [4]), 1.7 ± 0.35 µM in experiment [2] (setting [5]) and 1.6 ± 0.35 µM in experiment [3] (setting [6]).

For the compound `NCCCC[C@H](NC(=O)[C@H](Cc1ccccc1)NC(=O)OCc1ccccc1)C(=O)CSc1c(F)c(F)cc(F)c1F` [GD10], the IC50 in experiment [1] (setting [4]) was 0.19 ± 0.1 µM; in experiment [2] (setting [5]), 0.66 ± 0.02 µM; in experiment [3] (setting [6]) it was 0.65 ± 0.01 µM.

Regarding `Cc1cccc(C)c1C(=O)OCC(=O)[C@H](CCCCN)NC(=O)[C@H](Cc1ccccc1)NC(=O)OCc1ccccc1` [GB111-NH2, reference compound], the half-inhibitory concentration (IC50) in experiment [1] (setting [4]) turned out to be 0.25 ± 0.04 µM; in experiment [2] (setting [5]), 0.4 ± 0.06 µM; in experiment [3] (setting [6]), 4.4 ± 0.9 µM.

Turning to `CC(C)C[C@H](NC(=O)OCC1c2ccccc2-c2ccccc21)C(=O)N1CCC[C@H]1C(=O)OCC(=O)CNC(=O)[C@H](CC1CCCCC1)N[C@@H](c1ccc(-c2ccc(S(C)(=O)=O)cc2)cc1)C(F)(F)F` [GD28], the IC50 in experiment [1] (setting [4]), in experiment [2] (setting [5]) and in experiment [3] (setting [6]) was more than 5 µM each time.

Regarding `C#CCNC(=O)[C@H](CC(C)C)N[C@@H](c1ccc(-c2ccc(S(=O)(=O)NC(=O)OC(C)(C)C)cc2)cc1)C(F)(F)F` [GD33], the half-inhibitory concentration (IC50) in experiment [1] (setting [4]) was 4.4 ± 0.8 µM; in experiment [2] (setting [5]), more than 20 µM; in experiment [3] (setting [6]), more than 20 µM.

`CC(C)C[C@H](NC(=O)OCC1c2ccccc2-c2ccccc21)C(=O)N1CCC[C@H]1C(=O)OCC(=O)CNC(=O)[C@H](CCCCNC(=O)OC(C)(C)C)N[C@@H](c1ccc(-c2ccc(S(C)(=O)=O)cc2)cc1)C(F)(F)F` [GD29]: the values for the IC50 in experiment [1] (setting [4]), in experiment [2] (setting [5]) and in experiment [3] (setting [6]) were 1.6 ± 0.5 µM, more than 5 µM and more than 5 µM, respectively.

For the compound `CC(C)C[C@H](N[C@@H](c1ccc(-c2ccc(NC(=O)OC(C)(C)C)cc2)cc1)C(F)(F)F)C(=O)NCC(=O)COC(=O)[C@@H]1CCCN1C(=O)[C@H](CC(C)C)NC(=O)OCC1c2ccccc2-c2ccccc21` [GD26], the IC50 is more than 5 µM in experiment [1] (setting [4]), 6 ± 1.5 µM in experiment [2] (setting [5]) and 1.4 ± 0.2 µM in experiment [3] (setting [6]).

As for `Cc1cccc(C)c1C(=O)OCC(=O)CNC(=O)[C@@H]1CCCN1C(=O)CNC(=O)OCc1ccccc1` [GD16], the half-maximal inhibitory concentration (IC50) in experiment [1] (setting [4]) is more than 5 µM; in experiment [2] (setting [5]), 2.8 ± 0.6 µM; in experiment [3] (setting [6]) it was 1.8 ± 0.25 µM.

As for `Cc1cccc(C)c1C(=O)OCC(=O)[C@H](CCCCN)NC(=O)[C@H](CC(C)C)NC(=O)CNC(=O)OCc1ccccc1` [GD12], the values for the 50% inhibitory concentration (IC50) in experiment [1] (setting [4]), in experiment [2] (setting [5]) and in experiment [3] (setting [6]) were 1.6 ± 0.22 µM, 1 ± 0.13 µM and 0.8 ± 0.1 µM, respectively.

For the compound `CC(C)C[C@H](N[C@H](c1ccc(-c2ccc(S(C)(=O)=O)cc2)cc1)C(F)(F)F)C(=O)NCC(=O)COC(=O)[C@@H]1CCCN1C(=O)[C@H](CC(C)C)NC(=O)OCC1c2ccccc2-c2ccccc21` [GD35], the half-inhibitory concentration (IC50) in experiment [3] (setting [6]) came out at 3.5 ± 0.5 µM. Also, the “loss of potency compared to GD20” value in experiment [3] is reported as 4–9 times.

Regarding `CC(C)C[C@H](N[C@@H](c1ccc(-c2ccc(CCNC(=O)OC(C)(C)C)cc2)cc1)C(F)(F)F)C(=O)NCC(=O)COC(=O)[C@@H]1CCCN1C(=O)[C@H](CC(C)C)NC(=O)OCC1c2ccccc2-c2ccccc21` [GD34], the IC50 in experiment [1] (setting [4]) was more than 5 µM; in experiment [2] (setting [5]), 5 ± 0.1 µM; in experiment [3] (setting [6]), 0.9 ± 0.06 µM.

On to `O=C(CNC(=O)[C@@H]1CCCN1C(=O)CNC(=O)OCc1ccccc1)CSc1c(F)c(F)cc(F)c1F` [GD17], for which the concentration for half-maximal inhibition (IC50) was more than 5 µM in experiment [1] (setting [4]), more than 5 µM in experiment [2] (setting [5]) and 1.2 ± 0.11 µM in experiment [3] (setting [6]).

As for `CC(C)C[C@H](NC(=O)OCC1c2ccccc2-c2ccccc21)C(=O)N1CCC[C@H]1C(=O)OCC(=O)CNC(=O)[C@@H](CC(C)C)N[C@@H](c1ccc(-c2ccc(S(C)(=O)=O)cc2)cc1)C(F)(F)F` [GD39], the IC50 in experiment [3] (setting [6]) is 3.9 ± 0.7 µM. Also, in experiment [3], the “loss of potency compared to GD20” value is 4–9 times.

For `CC(C)C[C@H](N[C@@H](c1ccc(-c2ccc(S(=O)(=O)NC(=O)OC(C)(C)C)cc2)cc1)C(F)(F)F)C(=O)NCC(=O)COC(=O)[C@@H]1CCCN1C(=O)[C@H](CC(C)C)NC(=O)OCC1c2ccccc2-c2ccccc21` [GD31], the results for the half-maximal inhibitory concentration (IC50) in experiment [1] (setting [4]), in experiment [2] (setting [5]) and in experiment [3] (setting [6]) were more than 20 µM, 0.24 ± 0.1 µM and 0.9 ± 0.1 µM, respectively.

Regarding `NCCCC[C@H](NC(=O)[C@@H]1CCCN1C(=O)CNC(=O)OCc1ccccc1)C(=O)COc1c(F)c(F)cc(F)c1F` [GD14], the IC50 in experiment [1] (setting [4]) is more than 5 µM; in experiment [2] (setting [5]) it was 0.8 ± 0.25 µM; in experiment [3] (setting [6]) it was 0.3 ± 0.03 µM.

For the compound `Cc1cccc(C)c1C(=O)OCC(=O)CNC(=O)[C@H](CC(C)C)N[C@@H](c1ccc(-c2ccc(S(C)(=O)=O)cc2)cc1)C(F)(F)F` [GD7], the concentration for half-maximal inhibition (IC50) in experiment [1] (setting [4]) was more than 5 µM; in experiment [2] (setting [5]), 3.6 ± 0.03 µM; in experiment [3] (setting [6]), 0.66 ± 0.01 µM.

Turning to `CC(C)C[C@H](N[C@@H](c1ccc(-c2ccc(S(C)(=O)=O)cc2)cc1)C(F)(F)F)C(=O)NCC(=O)COc1c(F)c(F)cc(F)c1F` [GD8], the values for the IC50 in experiment [1] (setting [4]), in experiment [2] (setting [5]) and in experiment [3] (setting [6]) were 3.6 ± 0.04 µM, 2.2 ± 0.35 µM and 0.68 ± 0.08 µM, respectively.

The values above are taken from paper PMC11938014, “Development and Application of Small Molecule–Peptide Conjugates as Cathepsin K-Specific Covalent Irreversible Inhibitors in Human Osteoclast and Lung Cancer” (JACS Au, 2025).
